Activity calls are given as the source filed them. The rule behind the calls is not given here.
Tests used:
[1] = system: Leishmania donovani; experiment: Antileishmanial activity against Leishmania donovani HOM/IN/80/Dd8 amastigotes infected in Sigmodon hispidus peritoneal macrophages assessed as reduction in average number of amastigotes per infected macrophage at 30 ug/ml; assay type: functional; conditions: for inhibition at 30 µg/mL: HOM/IN/80/Dd8, in Sigmodon hispidus
[2] = Cytotoxicity against Sigmodon hispidus peritoneal macrophages at 60 ug/ml; assay type: cell-based; conditions: peritoneal macrophage cell
[3] = system: Leishmania donovani; experiment: Antileishmanial activity against Leishmania donovani HOM/IN/80/Dd8 amastigotes infected in Mesocricetus auratus assessed as survival days at 10 mg/kg, ip administered daily for 5 days; assay type: functional
[4] = system: Leishmania donovani; experiment: Antileishmanial activity against Leishmania donovani HOM/IN/80/Dd8 amastigotes infected in Sigmodon hispidus peritoneal macrophages assessed as reduction in infected macrophages at 30 ug/ml; assay type: functional; conditions: for inhibition at 30 µg/mL: HOM/IN/80/Dd8, in Sigmodon hispidus
[5] = system: Leishmania donovani; experiment: Antileishmanial activity against Leishmania donovani HOM/IN/80/Dd8 amastigotes infected in Mesocricetus auratus at 10 mg/kg, ip administered daily for 5 days measured after 7 days; assay type: functional; conditions: for inhibition in vivo at 10 mg/kg: HOM/IN/80/Dd8, in Mesocricetus auratus, route intraperitoneal
[6] = system: Leishmania donovani; experiment: Antileishmanial activity against Leishmania donovani HOM/IN/80/Dd8 amastigotes infected in Mesocricetus auratus at 10 mg/kg, ip administered daily for 5 days measured after 28 days; assay type: functional
[7] = system: Leishmania donovani; experiment: Antileishmanial activity against Leishmania donovani HOM/IN/80/Dd8 amastigotes infected in Mesocricetus auratus at 100 mg/kg, po administered daily for 5 days; assay type: functional; conditions: HOM/IN/80/Dd8, in Mesocricetus auratus, 120 h
[8] = system: Leishmania donovani; experiment: Antileishmanial activity against Leishmania donovani HOM/IN/80/Dd8 amastigotes infected in Sigmodon hispidus peritoneal macrophages assessed as reduction in average number of amastigotes per infected macrophage at 100 ug/ml; assay type: functional
[9] = system: Leishmania donovani; experiment: Antileishmanial activity against Leishmania donovani HOM/IN/80/Dd8 amastigotes infected in Sigmodon hispidus peritoneal macrophages assessed as reduction in infected macrophages at 100 ug/ml; assay type: functional
[10] = system: Leishmania donovani; experiment: Antileishmanial activity against Leishmania donovani HOM/IN/80/Dd8 amastigotes infected in Sigmodon hispidus peritoneal macrophages assessed as reduction in infected macrophages at 60 ug/ml; assay type: functional; conditions: HOM/IN/80/Dd8, in Sigmodon hispidus
[11] = system: Leishmania donovani; experiment: Antileishmanial activity against Leishmania donovani HOM/IN/80/Dd8 amastigotes infected in Sigmodon hispidus peritoneal macrophages assessed as reduction in average number of amastigotes per infected macrophage at 60 ug/ml; assay type: functional; conditions: HOM/IN/80/Dd8, in Sigmodon hispidus
[12] = system: Leishmania donovani; experiment: Antileishmanial activity against Leishmania donovani HOM/IN/80/Dd8 amastigotes assessed as minimum effective dose; assay type: functional, organism-based
[13] = HOM/IN/80/Dd8, in Sigmodon hispidus

Row | Compound | inhibition at 30 µg/mL [1] [%] | Activity [2] | Survival ([3]; route intraperitoneal) [days] | inhibition at 30 µg/mL [4] [%] | inhibition in vivo at 10 mg/kg [5] [%] | inhibition [6] | inhibition [5] | other results
1 | COC(=O)C1=CO[C@@H](O[C@@H]2O[C@H](CO)[C@@H](O)[C@H](O)[C@H]2O)[C@@H]2[C@@H](C)[C@@H](O)[C@@H](O)[C@H]12 | 65.8 | Toxic | <28 | 42.2 | 30.8 | – | – | –
2 | COC(=O)C1=CO[C@@H](O[C@@H]2O[C@H](CO)[C@@H](O)[C@H](O)[C@H]2O)[C@@H]2[C@@H](C)[C@@H](OC(=O)/C=C/c3ccc(OC)cc3)[C@@H](O)[C@H]12 [ARBORTRISTOSIDE A] | 45.8 | – | 38 | 7.13 | 18.2 | – | – | inhibition in vivo at 10 mg/kg ([6]; HOM/IN/80/Dd8, in Mesocricetus auratus, route intraperitoneal): 79.7%; inhibition in vivo at 100 mg/kg [7]: 57%; inhibition at 100 µg/mL [8, 13]: 64.6%; inhibition at 100 µg/mL [9, 13]: 30.2%
3 | COC(=O)C1=CO[C@@H](O[C@@H]2O[C@H](CO)[C@@H](O)[C@H](O)[C@H]2O)[C@@H]2[C@@H](CO)[C@@H](OC(=O)/C=C/c3ccc(O)c(O)c3)[C@@H](O)[C@H]12 [ARBORTRISTOSIDE B] | 25.1 | – | 59 | 28.1 | – | inactive | inactive | inhibition at 60 µg/mL [10]: 41.7%; inhibition at 60 µg/mL [11]: 47.3%
4 | COC(=O)C1=CO[C@@H](O[C@@H]2O[C@H](CO)[C@@H](O)[C@H](O)[C@H]2O)[C@@H]2[C@@H](C)[C@@H](OC(=O)/C=C/c3ccc(O)cc3)[C@@H](O)[C@H]12 [ARBORTRISTOSIDE C] | 67.4 | Toxic | <28 | 39.9 | – | – | inactive | –
5 | sodium stibogluconate | – | – | – | – | – | 93.5% | 71.9% | inhibition [1]: 80%; Survival [3]: < 30 days; inhibition [8]: 100%; inhibition [4]: 80%; inhibition [9]: 100%; MED [12]: 10 mg/kg

Reference: ChEMBL document CHEMBL1158974, “Iridoids: a new class of leishmanicidal agents from Nyctanthes arbortristis” (J Nat Prod, 1991)
